“And” between values parts separate entries of the source, which are not always exact repeats. Identical values can stand only once.
Test system: α7 integrin promoter
Assay: muscle cell-based assay: α7βgal+/− myoblasts/myotubes, LacZ reporter, β-galactosidase cleavage of FDG
Design: species or system mouse; Results in α7+/− β-galactosidase assay: scale not given here
Details: Myoblasts
In short: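 Fluorescein generated from FDG by β-galactosidase reports α7 integrin promoter activity in differentiated myoblasts from α7+/− LacZ knock-in pups. Screening hits then went to dose-response, western blotting and a myostatin counterscreen.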

Compound | Results in α7+/− β-galactosidase assay (0.5 uM) | Results in α7+/− β-galactosidase assay (1 uM) | Results in α7+/− β-galactosidase assay (5 uM) | Results in α7+/− β-galactosidase assay (10 uM) | Results in α7+/− β-galactosidase assay (20 uM) | Results in α7+/− β-galactosidase assay (40 uM)
COc1ccc(CNC(=O)C2CCCN(S(=O)(=O)c3c(C)noc3/C=C/N(C)C)C2)cc1 (stereo not shown) [drawing 579] | −0.00404 | 0.03462 | −0.04768 | −0.2043 | −0.2235 | −0.5821
CC(O)CNc1nc2c(c(=O)n(Cc3ccc(Br)cc3)c(=O)n2C)n1C (stereo not shown) [drawing 580] | 0.04963 | 0.02595 | −0.05885 | −0.1174 | −0.1471 | −0.218
COc1ccc(Cl)cc1NC(=O)c1cc(-c2cc(C)ccc2O)[nH]n1 [drawing 581] | 0.01879 | 0.1148 | −0.07708 | −0.1804 | −0.08756 | −0.06105
CCC(C)C(CC)NC(=O)CSc1nnc(COc2ccc(Cl)cc2)o1 (stereo not shown) [drawing 582] | 0.3279 | 0.05348 | 0.1357 | −0.1014 | −0.1787 | −0.4133
N#Cc1ccc(Sc2nc3ccccc3[nH]2)cc1C#N [drawing 584] | 0.3095 | 0.07925 | 0.2487 | 0.1199 | 0.003655 | −0.1111
COc1cc(/C=C/CN2CCN(Cc3ccc(C)o3)C(CCO)C2)ccc1O (stereo not shown) [drawing 585] |  |  | 0.1427 and 0.1728 |  |  | 
COc1ccccc1C(=O)OCc1ccc2sc(C)nc2c1 [drawing 586] | 0.191 | −0.07182 | 0.1329 | 0.00833 | 0.1184 | 0.01583
NC(=O)COc1ccc(C(=O)/C=C2\C(=O)Nc3ccccc32)cc1 [drawing 587] | 0.211 | −0.06344 | −0.1959 | −0.647 | −0.8153 | −0.9741
CC1(C)Cc2ccccc2-c2nc3n(c(=O)c21)CCS3 [drawing 588] | 0.2141 | 0.0159 | 0.02034 | 0.02377 | −0.2051 | −0.4207
CN(/C(=N/S(=O)(=O)c1cccs1)c1ccccc1)c1ccccc1 [drawing 589] | 0.2361 | −0.03677 | −0.05696 | −0.01934 | −0.0583 | −0.2263
CSc1ccc(S(=O)(=O)NCc2ccccc2)cc1 [drawing 590] | −0.1174 | −0.07696 | 0.06657 | 0.6252 | 0.01406 | −0.1992
O=C1Nc2ccccc2/C1=C/c1ccccc1F [drawing 591] | −0.0677 | −0.05193 | 0.009111 | 0.1004 | −0.4184 | −0.7444
CN1C(=O)/C(=C(/C#N)c2nc3ccccc3[nH]2)c2ccccc21 [drawing 592] | −0.1972 | −0.1961 | −0.2667 | 0.04652 | −0.456 | −0.5499
CC1CC(C)(C)N=C(S)N1CC(=O)N(C)Cc1ccccc1 (stereo not shown) [drawing 593] | −0.00967 | 0.04937 | 0.1163 | 0.244 | 0.03336 | 0.02068
Cc1noc(C)c1COc1ccc(C(=O)NCCc2ccccn2)cc1 [drawing 594] | −0.1523 | −0.1552 | −0.01736 | 0.1691 | −0.127 | −0.3226
COCCSc1ccccc1C(=O)Nc1cc(C)cc(C)c1 [drawing 595] | −0.06029 | −0.1236 | 0.04359 | 0.2482 | −0.09845 | −0.1003
CC(=O)Nc1ccc(NC(=O)c2cc(=O)c3cc(C)cc(C)c3o2)cc1 [drawing 596] | −0.1173 | −0.07551 | −0.4622 | 0.1321 | −0.5173 | −0.5206
Cc1cccc(Sc2nc(-c3ccccc3)ccc2C#N)c1 [drawing 598] | −0.2243 | −0.2124 | 0.4228 | 0.1696 | −0.08803 | −0.1146
CCC(C)NC(=O)CSc1nnc(COc2ccc(Br)cc2)o1 (stereo not shown) [drawing 599] | 0.03703 | −0.07 | −0.1163 | 0.4886 | −0.0797 | −0.4672
Cc1ccc(N2C(=O)C3NN=C(C(=O)OCc4ccccc4)C3C2=O)cc1 (stereo not shown) [drawing 600] | 0.05483 | −0.02931 | −0.09981 | −0.01836 | 0.1359 | −0.03893
Cc1cc([N+](=O)[O-])ccc1NC(=O)C(C)N1CCN(c2ccccn2)CC1 (stereo not shown) [drawing 601] | 0.08805 | 0.0582 | −0.01841 | −0.03065 | −0.0419 | −0.274
CCc1nc(/C=C2\C(=O)Nc3ccccc32)c[nH]1 [drawing 602] | 0.2737 | 0.07781 | 0.08036 | 0.1565 | 0.1925 | −0.2038
CCOC(=O)C1(Cc2cccc(Cl)c2)CCCN(C(=O)CCSC)C1 (stereo not shown) [drawing 604] | 0.08932 | −0.00471 | −0.04484 | −0.02503 | −0.06029 | −0.2262

— patent US10028992B2, “Methods of treating muscular dystrophy” (BOARD OF REGENTS OF THE NEVADA SYSTEM OF HIGHER EDUCATION …, priority 2012, dated 2018)
